Measured values from PubChem BioAssay AID179 (DTP/NCI, 2004).
Active and inactive are the calls of the source.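 How the source made its calls: active means compounds giving half or more protection of infected cells from virus-caused growth loss, again on retest; inactive means the rest.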

Test system: CEM cells HIV-1 protection, formazan growth assay
Experiment: NCI AIDS Antiviral Assay
Conditions: for IC50: measured here: growth of uninfected CEM cells
How it was run: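 Steps: treat uninfected and HIV-1-infected human CEM cells at five drug levels; quantify growth by soluble formazan; retest any compound reaching 50% protection; classify actives from the retest.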

Compound	EC50 [µM]	IC50 [µM]	outcome
Oc1cccc2c1N1CCN2CC1	> 200	> 200	–
COC1/C=C/OC2(C)Oc3c(C)c(O)c4c(O)c(cc(OCC(=O)N(C)C5CCCC5)c4c3C2=O)NC(=O)/C(C)=C/C=C/C(C)C(O)C(C)C(O)C(C)C(OC(C)=O)C1C (stereo unspecified)	> 200	28.8	–
Nc1nnc(N)c2[nH]cnc12	> 200	> 200	–
Cn1c2ccccc2c2[nH]c3ccccc3c(=O)c21	> 200	13.8	–
O=[N+]([O-])C1=C(c2ccccc2)SC([N+](=O)[O-])=C(c2ccccc2)S1	> 200	14.8	–
COc1ccc(N2C(=O)C3C=CC(n4[nH]c(=O)n(Cc5ccccc5)c4=O)CC3C2=O)cc1 (stereo unspecified)	> 407	209	–
O=C(O)CNc1cc(-c2ccccc2)nc(NCC(=O)O)n1	–	–	inactive
COc1cc(-c2cc(-c3ccccc3)nc(-c3c(OC)ccc4c(C)cc(=O)oc34)c2)cc(OC)c1OC	> 200	> 200	–
CC(=O)Nc1nnc2c3ccccc3n(C(C)=O)c2n1	> 200	3.55	–
COc1cc(Oc2c(O)c(C)c(OC)c(C(C)=O)c2O)c(C(C)=O)c(O)c1C	> 93.3	> 93.3	–
C#CC1(O)CCC2C3CCC4=C(CCC(=O)C4)C3CCC21C (stereo unspecified)	30.9	166	–
O=C(CCc1cc(-c2ccccc2)nc(=S)[nH]1)N(Cc1ccccc1)Cc1ccccc1	–	–	inactive
C/C(=N/NC(=S)N1CCCCCC1)c1cccc(/C(C)=N\NC(=S)N2CCCCCC2)n1	> 200	3.63	–
CCc1ccc(Cc2ccc(CC)c(NC(=O)C(=O)C3NC(=S)NC3=O)c2CC)c(CC)c1NC(=O)C(=O)C1NC(=S)NC1=O (stereo unspecified)	> 15.1	> 15.1	–
C=C1CN=C(Nc2ccc(Cl)cc2)S1	> 200	75.9	–
O=CC1CCC=CC1NC(=O)OCc1ccccc1 (stereo unspecified)	–	–	inactive
Nc1nc(-c2ccccc2)cc(-c2ccc(F)cc2)c1-c1ccc(Cl)cc1	> 200	132	–
O=c1c2c(no[n+]2[O-])c2ccccc2n1-c1ccccc1	> 200	1.95	–
COc1ccc2c(c1)OCC(O)(c1ccccc1)C2=O (stereo unspecified)	> 200	155	–
c1ccc(P2c3ccccc3Oc3ccccc32)cc1	> 200	35.5	–
COc1cc2c(cc1OC)C(C(=O)c1cccc(OC)c1OC)C(=O)N(C)CC2 (stereo unspecified)	> 126	> 126	–
O=C(Sc1c(-c2ccccc2)c(=O)n(-c2ccccc2)c(=S)n1-c1ccccc1)c1ccco1	> 200	34.7	–

Compound	EC50 [µM]	IC50 [µM]	outcome
Nc1ncnc2sc(Nc3ccccc3)nc12	> 53.7	33.1	–
CN(C(=O)C12C3C4C1C1C2C3C41C(=O)C(C)(C)C)C(C)(C)C (stereo unspecified)	> 6.61	> 6.61	–
O=CC(O)C(O)C(O)C1CNC(=S)O1 (stereo unspecified)	> 200	> 200	–
Clc1ccc(Cl)c(N=Nc2cc3c4c(c2)CCN4CCC3)c1	> 100	> 100	–
CCOC(=O)C1=C(Nc2cccc3ccccc23)OC/C1=N\NC(=O)c1ccccc1O	> 60.3	17.4	–
CN(C)/N=C(\CCN1CCCC1)CC(c1ccccc1)c1c(O)c2ccccc2oc1=O (stereo unspecified)	> 39.8	> 39.8	–
COc1ccc(NC2Oc3cc4c(cc3C(c3cc(OC)c(O)c(OC)c3)C2C)OCO4)cc1 (stereo unspecified)	> 200	3.63	–
CCn1c2ccccc2c2cc(NC(=O)c3c(NCCNCCO)nc(=O)[nH]c3C)ccc21	> 200	> 200	–
O=c1[nH]c2cc([N+](=O)[O-])ccc2nc1/C(=N\Nc1ccccc1)C(O)c1ccc2c(c1)OCO2 (stereo unspecified)	> 447	214	–
CC1CC[P+](C)(Cc2ccccc2)C1 (mixture of isomers)	> 437	162	–
[Cl-].[Co+2].c1cnc2c(c1)ccc1cccnc12.c1cnc2c(c1)ccc1cccnc12.c1cnc2c(c1)ccc1cccnc12	> 100	0.977	–
Cc1cc(Cl)c(O)c(-c2cc(-c3cccc([N+](=O)[O-])c3)c3c(N)[nH]c(=S)nc3n2)c1	> 200	3.89	–
CC[N+](C)(CC)CCC(O)(c1ccccc1)c1ccccc1	> 200	> 200	–
O=C(CNC(=O)c1cnc2ccccc2n1)NCCCNC(=O)CNC(=O)c1cnc2ccccc2n1	> 100	> 100	–
O=[N+]([O-])/C=C/c1cc2ccccc2[nH]1	> 200	6.31	–
O=C(O)CN(c1ccccc1)S(=O)(=O)c1ccc(Cl)cc1	–	–	inactive
Cc1cc(NS(=O)(=O)c2ccc(Nc3c4ccccc4nc4c(C(=O)NCCN(C)C)cccc34)cc2)no1	–	–	inactive
CCOC(=O)Cc1nc2nn(Cc3ccccc3)cc2c(=O)[nH]1	> 200	> 200	–
C[C@]12CC[C@H]3[C@@H](CC=C4C[C@@H](O)CC[C@@]43C)[C@@H]1CC[C@@H]2c1cnc[nH]1	> 200	117	–
Cc1ccc(Sc2ccccc2[N+](=O)[O-])cc1	–	–	inactive
CC(C)(CN1CCCCC1)C(=O)/C=C/c1ccc(Cl)c(Cl)c1	> 33.1	3.09	–
O=C1/C(=C/c2ccccc2)CNC/C1=C\c1ccccc1	–	–	inactive

Compound	EC50 [µM]	IC50 [µM]	outcome
COc1ccc(/C=C/C(=O)c2sc(-c3cccnc3)nc2C)cc1	> 21.4	> 21.4	–
CC(C)(C)C(=O)C(C(=O)c1ccccc1)C(=O)C(C)(C)C	> 200	> 200	–
COC(=O)C1=C(C(=O)OC)C2(c3ccccc3)OC1(c1ccccc1)c1cc3ccccc3cc12	–	–	inactive
CS(=O)(=O)ON1C(=O)c2ccc(N)cc2C1=O	> 372	282	–
NNC(=O)c1c(SCc2ccccc2)nc2c3ccccc3ccn12	> 200	15.8	–
CCn1c(=O)c2ncnnc2n(CC)c1=O	> 200	> 200	–
CC(C)C(OC(=O)c1ccc(NCC2=CC(=O)C=CC2=O)cc1)C(C)C	> 20	9.12	–
CC(=O)/C=C/c1ccco1	> 26.3	> 26.3	–
Cc1cccc2c(N)c3cccc(C(=O)NCC[N+](C)(C)Cc4ccc([N+](=O)[O-])s4)c3nc12	> 2	0.251	–
CCOC(=O)C(C#N)C1=CC(=O)C(=O)c2ccc(O)cc21 (stereo unspecified)	> 457	209	–
Cc1cc(C)c(S(=O)(=O)Sc2nnnn2C)c(C)c1	> 603	126	–
CN(N)c1cn[nH]c(=O)c1Cl	> 200	> 200	–
CSSC(SC)SC	> 200	33.1	–
CC(=O)Oc1ccc(N2C(=O)C3c4[nH]c5ccccc5c4C4CCC(C(C)(C)C)CC4C3C2=O)cc1 (stereo unspecified)	> 200	9.77	–
O=C(NC(Cl)(C(F)(F)F)C(F)(F)F)c1ccc(F)cc1	> 200	> 200	–
COc1ccccc1NC(=O)/C(=C\N1C(=O)CC(=O)NC1=S)C(C)=O	> 200	> 200	–
Cc1ccc(NC(=O)c2ccccc2)c(=O)o1	> 200	> 200	–
COc1ccc(C(=O)c2ccccc2O)c(O)c1	> 200	> 100	–
C1CCC(N([P-]P([P-]N(C2CCCCC2)C2CCCCC2)N(C2CCCCC2)C2CCCCC2)C2CCCCC2)CC1.[C-]#[O+].[C-]#[O+].[C-]#[O+].[C-]#[O+].[C-]#[O+].[C-]#[O+].[Fe].[Fe] (stereo unspecified)	> 0.603	> 0.603	–
C#CCN(Cc1ccc2nc(OC)c(OC)nc2c1)c1cc(OC)c(OC)c(OC)c1	> 200	11.2	–
Cc1ccc(CC[P+](=O)CCc2ccc(C)nc2)cn1	> 200	> 200	–
C(=C/c1ccc2nc(-c3ccc(/C=C/C=N/NC4=NCCCN4)cc3)cn2c1)/C=N/NC1=NCCCN1	> 100	16.6	–

Compound	EC50 [µM]	IC50 [µM]	outcome
COc1ccc2cc1Oc1ccc(cc1)C[C@@H]1c3cc(c(OC)cc3CCN1C)Oc1c(OC)c(OC)cc3c1[C@H](C2)N(C)CC3	–	–	inactive
CC/C(=C(\C#N)c1ccc(F)cc1)c1ccc(OCCN(CC)CC)cc1	> 200	2.51	–
Nc1ccc(C(=O)Nc2ccc(/C=C/c3ccc(NC(=O)c4ccc(N)cc4S(=O)(=O)O)cc3S(=O)(=O)O)c(S(=O)(=O)O)c2)c(S(=O)(=O)O)c1	22.4	89.1	–
CC(C)(C)P1(=O)OCC(c2ccccc2)CO1 (stereo unspecified)	> 200	151	–
COC(=O)c1c2c(cc3c1CC1(Cc4cc5c(c(C=O)c4C1)CCC5)C3)CCC2 (stereo unspecified)	> 200	20	–
CN(C)CC[PH+](c1ccccc1)c1ccccc1.CN(C)CC[PH+](c1ccccc1)c1ccccc1.[Cl-].[Pd+2]	> 200	> 200	–
COc1cc2ccnc3c2c(c1OC)-c1coc(SC)c1-3	–	–	inactive
N#CC1(O)Cc2ccccc2C1	> 200	> 200	–
O=C1C2CCCCC2C(=O)N1n1c(Cc2ccc(Cl)cc2)n[nH]c1=O (stereo unspecified)	> 200	> 200	–
CN(C)C1C(=O)C(C(N)=O)=C(O)C2(O)C(=O)C3=C(O)c4c(O)cccc4C(C)(O)C3C(O)C12 (stereo unspecified)	> 263	95.5	–
Nc1ncnc2c1ncn2C1OC(CO)C(O)C1O (stereo unspecified)	–	–	inactive
Cc1ccc(C(=O)C2=CN=C3C(=O)N(c4ccccc4)N(C)C3(C)C2=N)cc1 (stereo unspecified)	> 200	> 200	–
Cc1cccc2c3c(ccc12)C(=O)OC3=O	–	–	inactive
CC1(C)CC(=O)c2c(nc3c(ccc4ccccc43)c2-c2ccc(NC(=O)CCC(=O)Nc3ccc(-c4c5c(nc6c4ccc4ccccc46)CC(C)(C)CC5=O)cc3)cc2)C1	> 100	> 100	–
Cc1cn([C@H]2CC3C(CON3C)O2)c(=O)[nH]c1=O (stereo partly specified)	> 200	> 200	–
O=C(NCCCN(CCCCN(CCCNC(=O)C(F)(F)F)Cc1ccc2ccccc2c1)Cc1ccc2ccccc2c1)C(F)(F)F	–	–	inactive
O=C1c2ccccc2-c2oc(=O)c3ccccc3c21	> 40.7	> 40.7	–
O=C1C=C2CCC[C@H]3OC(=O)C[C@@]23CC1	–	–	inactive
C=C=C(CC(CC(=C)Br)(C(=O)OC)C(=O)OC)S(=O)(=O)c1ccccc1	> 200	1.45	–
